Measured values published in US9221814B2, “Heterocyclic guanidine F1F0-atpase inhibitors and therapeutic uses thereof” (Lycera Corporation, priority 2012, dated 2015).
pEC50, pIC50: −log10 of the molar value. Where two headings read alike, the source gives them in different places.

Tests used:
Ramos cells = experiment: Cytotoxicity in Ramos cells; assay type: cell-based; conditions: detection limit EC50=16 μM, read-out: Ramos Cell EC50
Experimental: (§1) Exemplary compounds described in above Examples were tested for activity against F1F0-ATPase by measuring the ability of the compounds to inhibit ATP synthesis. In addition, the compounds were assessed for cytotoxicity in Ramos cells. Inhibition of F1F0-ATPase activity in synthesizing ATP and cytotoxicity in Ramos cells were measured according to the procedures described in K. M. Johnson et al. Chemistry & Biology 2005, 12, 485-496.

F1F0-ATPase = target: T1, F1F0-ATPase (Bos taurus, UniProt P13621); experiment: Inhibition of F1F0-ATPase activity in synthesizing ATP (ATP synthesis inhibition); assay type: biochemical; conditions: detection limit IC50=16 μM, read-out: ATP Syn IC50
T1 construct: from tissue
Experimental: as §1

| SMILES | pEC50 (Ramos cells) | pIC50 (F1F0-ATPase) | pEC50 (Ramos cells; Homo sapiens) |
| --- | --- | --- | --- |
| COc1ccc(-c2cc(N/C(=N\C(=O)c3cn(C)nc3C(F)(F)F)Nc3ccc(C(C)(C)C)cc3)[nH]n2)cc1F [Compound A-148] | 4.80 to 5.30 | 4.80 to 5.30 | – |
| CC(C)N/C(=N/C(=O)c1cn(C)nc1C(F)(F)F)Nc1cc(-c2ccc(O)cc2F)n[nH]1 [Compound A-149] | < 4.80 | < 4.80 | – |
| Cn1cc(C(=O)N=C(Nc2ccc(F)cc2)Nc2cc(-c3ccc(O)cc3F)n[nH]2)c(C(F)(F)F)n1 [Compound A-150] | – | > 5.30 | > 5.30 |
| Cn1cc(C(=O)/N=C(/Nc2ccc(C(C)(C)C)cc2)Nc2cc(-c3ccc(O)cc3F)n[nH]2)c(C(F)(F)F)n1 [Compound A-151] | > 5.30 | > 5.30 | – |
| CC(C)N/C(=N/C(=O)c1cn(C)nc1C(F)(F)F)Nc1cc(-c2ccc(O)c(F)c2)n[nH]1 [Compound A-152] | 4.80 to 5.30 | 4.80 to 5.30 | – |
| Cn1cc(C(=O)/N=C(\Nc2cc(-c3ccc(O)c(F)c3)n[nH]2)Nc2ccc(F)cc2Cl)c(C(F)(F)F)n1 [Compound A-153] | > 5.30 | > 5.30 | – |
| COc1ccc(-c2cc(N/C(=N\C(=O)c3cn(C)nc3C(F)(F)F)Nc3cccc(Cl)c3)[nH]n2)cc1F [Compound A-154] | < 4.80 | > 5.30 | – |
| COc1ccc(-c2cc(NC(=NC(=O)c3cn(C)nc3C(F)(F)F)Nc3ccc(F)c(Cl)c3)[nH]n2)cc1F [Compound A-155] | – | > 5.30 | < 4.80 |
| COc1ccc(-c2cc(N/C(=N\C(=O)c3cn(C)nc3C(F)(F)F)Nc3ccc(F)cc3)[nH]n2)cc1F [Compound A-156] | < 4.80 | > 5.30 | – |
| COc1ccc(-c2cc(N/C(=N\C(=O)c3cn(C)nc3C(F)(F)F)Nc3cccc(F)c3)[nH]n2)cc1F [Compound A-157] | 4.80 to 5.30 | > 5.30 | – |
| COc1ccc(-c2cc(N/C(=N\C(=O)c3cn(C)nc3C(F)(F)F)Nc3ccccc3C(C)(C)C)[nH]n2)cc1F [Compound A-158] | < 4.80 | > 5.30 | – |
| COc1ccc(-c2cc(N/C(=N\C(=O)c3cn(C)nc3C(F)(F)F)Nc3ccccc3C(F)(F)F)[nH]n2)cc1F [Compound A-159] | < 4.80 | 4.80 to 5.30 | – |
| COc1ccc(-c2cc(N/C(=N\C(=O)c3cn(C)nc3C(F)(F)F)Nc3cc(Cl)ccc3F)[nH]n2)cc1F [Compound A-160] | < 4.80 | 4.80 to 5.30 | – |
| COc1ccc(-c2cc(N/C(=N\C(=O)c3cn(C)nc3C(F)(F)F)Nc3ccc(F)cc3F)[nH]n2)cc1F [Compound A-161] | < 4.80 | > 5.30 | – |
| Cn1cc(C(=O)/N=C(/Nc2cccc(Cl)c2)Nc2cc(-c3ccc(O)c(F)c3)n[nH]2)c(C(F)(F)F)n1 [Compound A-162] | > 5.30 | > 5.30 | – |
| Cn1cc(C(=O)/N=C(/Nc2ccc(F)c(Cl)c2)Nc2cc(-c3ccc(O)c(F)c3)n[nH]2)c(C(F)(F)F)n1 [Compound A-163] | > 5.30 | > 5.30 | – |
| Cn1cc(C(=O)/N=C(/Nc2ccc(F)cc2)Nc2cc(-c3ccc(O)c(F)c3)n[nH]2)c(C(F)(F)F)n1 [Compound A-164] | > 5.30 | > 5.30 | – |
| Cn1cc(C(=O)/N=C(/Nc2ccc(C(C)(C)C)cc2)Nc2cc(-c3ccc(O)c(F)c3)n[nH]2)c(C(F)(F)F)n1 [Compound A-165] | > 5.30 | > 5.30 | – |
| Cn1cc(C(=O)/N=C(/Nc2cccc(F)c2)Nc2cc(-c3ccc(O)c(F)c3)n[nH]2)c(C(F)(F)F)n1 [Compound A-166] | > 5.30 | > 5.30 | – |
| Cn1cc(C(=O)/N=C(\Nc2cc(-c3ccc(O)c(F)c3)n[nH]2)Nc2ccccc2C(C)(C)C)c(C(F)(F)F)n1 [Compound A-167] | > 5.30 | > 5.30 | – |
| Cn1cc(C(=O)N=C(Nc2cc(-c3ccc(O)c(F)c3)n[nH]2)Nc2cc(Cl)ccc2F)c(C(F)(F)F)n1 [Compound A-168] | – | > 5.30 | 4.80 to 5.30 |
| Cn1cc(C(=O)/N=C(\Nc2cc(-c3ccc(O)c(F)c3)n[nH]2)Nc2ccc(F)cc2F)c(C(F)(F)F)n1 [Compound A-169] | > 5.30 | > 5.30 | – |
| Cn1cc(C(=O)/N=C(/Nc2cccc(O)c2)Nc2cc(-c3ccc(O)c(F)c3)n[nH]2)c(C(F)(F)F)n1 [Compound A-170] | > 5.30 | 4.80 to 5.30 | – |
| Cn1cc(C(=O)N=C(Nc2cc(-c3ccc(O)c(F)c3)n[nH]2)Nc2ccccc2Cl)c(C(F)(F)F)n1 [Compound A-171] | – | > 5.30 | > 5.30 |

| SMILES | pEC50 (Ramos cells) | pIC50 (F1F0-ATPase) | pEC50 (Ramos cells; Homo sapiens) |
| --- | --- | --- | --- |
| Cn1cc(C(=O)/N=C(/Nc2ccc(F)c(C#N)c2)Nc2cc(-c3ccc(O)c(F)c3)n[nH]2)c(C(F)(F)F)n1 [Compound A-172] | < 4.80 | 4.80 to 5.30 | – |
| Cc1cc(F)ccc1N/C(=N/C(=O)c1cn(C)nc1C(F)(F)F)Nc1cc(-c2ccc(O)c(F)c2)n[nH]1 [Compound A-173] | > 5.30 | > 5.30 | – |
| Cn1cc(C(=O)/N=C(/Nc2cc(F)cc(F)c2)Nc2cc(-c3ccc(O)c(F)c3)n[nH]2)c(C(F)(F)F)n1 [Compound A-174] | > 5.30 | > 5.30 | – |
| CC(C)c1ccc(N/C(=N/C(=O)c2cn(C)nc2C(F)(F)F)Nc2cc(-c3ccc(O)c(F)c3)n[nH]2)cc1 [Compound A-175] | > 5.30 | 4.80 to 5.30 | – |
| Cn1cc(C(=O)/N=C(/Nc2ccc(F)c(F)c2)Nc2cc(-c3ccc(O)c(F)c3)n[nH]2)c(C(F)(F)F)n1 [Compound A-176] | > 5.30 | > 5.30 | – |
| Cn1cc(C(=O)/N=C(\Nc2cc(-c3ccc(O)c(F)c3)n[nH]2)Nc2cccc(Cl)c2F)c(C(F)(F)F)n1 [Compound A-177] | > 5.30 | > 5.30 | – |
| Cn1cc(C(=O)/N=C(\Nc2cc(-c3cc(O)ccc3F)n[nH]2)NC(C)(C)C)c(C(F)(F)F)n1 [Compound A-178] | 4.80 to 5.30 | 4.80 to 5.30 | – |
| CC(C)CN/C(=N/C(=O)c1cn(C)nc1C(F)(F)F)Nc1cc(-c2cc(O)ccc2F)n[nH]1 [Compound A-179] | < 4.80 | > 5.30 | – |
| Cn1cc(C(=O)/N=C(/Nc2cc(F)cc(Cl)c2)Nc2cc(-c3cc(O)ccc3F)n[nH]2)c(C(F)(F)F)n1 [Compound A-180] | > 5.30 | 4.80 to 5.30 | – |
| Cn1cc(C(=O)/N=C(\Nc2cc(-c3cc(O)ccc3Cl)n[nH]2)NC(C)(C)C)c(C(F)(F)F)n1 [Compound A-181] | 4.80 to 5.30 | > 5.30 | – |
| CC(C)CNC(=NC(=O)c1cn(C)nc1C(F)(F)F)Nc1cc(-c2cc(O)ccc2Cl)n[nH]1 [Compound A-182] | – | > 5.30 | 4.80 to 5.30 |
| Cn1cc(C(=O)/N=C(/Nc2cc(F)cc(Cl)c2)Nc2cc(-c3cc(O)ccc3Cl)n[nH]2)c(C(F)(F)F)n1 [Compound A-183] | 4.80 to 5.30 | > 5.30 | – |
| Cc1c(Cl)cccc1N/C(=N/C(=O)c1cn(C)nc1C(F)(F)F)Nc1cc(-c2ccc(O)c(F)c2)n[nH]1 [Compound A-184] | > 5.30 | > 5.30 | – |
| Cc1ccccc1N/C(=N/C(=O)c1cn(C)nc1C(F)(F)F)Nc1cc(-c2ccc(O)c(F)c2)n[nH]1 [Compound A-185] | > 5.30 | > 5.30 | – |
| Cc1ccc(Cl)cc1N/C(=N/C(=O)c1cn(C)nc1C(F)(F)F)Nc1cc(-c2ccc(O)c(F)c2)n[nH]1 [Compound A-186] | < 4.80 | 4.80 to 5.30 | – |
| Cc1cc(Cl)ccc1N/C(=N/C(=O)c1cn(C)nc1C(F)(F)F)Nc1cc(-c2ccc(O)c(F)c2)n[nH]1 [Compound A-187] | > 5.30 | > 5.30 | – |
| Cc1oncc1C(=O)/N=C(\Nc1cc(-c2ccc(F)cc2)n[nH]1)NC(C)(C)C [Compound A-188] | > 5.30 | > 5.30 | – |
| Cn1cc(C(=O)/N=C(/Nc2cc(F)cc(Cl)c2)Nc2cc(-c3ccc(O)c(F)c3)n[nH]2)c(C(F)(F)F)n1 [Compound A-189] | > 5.30 | > 5.30 | – |
| Cc1cc(C(=O)/N=C(\Nc2cc(-c3ccc(F)cc3)n[nH]2)NC(C)(C)C)c(C)o1 [Compound A-190] | 4.80 to 5.30 | > 5.30 | – |
| Cc1nc(C(=O)/N=C(\Nc2cc(-c3ccc(F)cc3)n[nH]2)NC(C)(C)C)c(C)o1 [Compound A-191] | < 4.80 | < 4.80 | – |
| Cc1cc(C(=O)/N=C(/NCC(C)C)Nc2cc(-c3ccc(F)cc3)n[nH]2)c(C)o1 [Compound A-192] | 4.80 to 5.30 | > 5.30 | – |
| Cc1nc(C(=O)/N=C(/NCC(C)C)Nc2cc(-c3ccc(F)cc3)n[nH]2)c(C)o1 [Compound A-193] | 4.80 to 5.30 | 4.80 to 5.30 | – |
| CCOCC(C)N/C(=N/C(=O)c1nc(C)oc1C)Nc1cc(-c2ccc(F)cc2)n[nH]1 (stereo not shown) [Compound A-194] | > 5.30 | < 4.80 | – |
